Entries after “also recorded” stand apart in the source; their conditions may differ.
How the values were obtained:
[1] = test system: adipocytes; assay: Histology of injected immediate ex-vivo abdominoplasty tissue; assay type: cell-based, human
Method: As the indole group has not been previously used for intralesional fat reduction, a method of obtaining histologic specimens had to be modified.
The tissue model described herein, therefore, was immediate ex-vivo abdominoplasty tissue that had been permitted for use by the surgical patient. Segments of abdominal skin and subcutaneous fat were injected with identified test compounds, plus a negative saline control and three positive controls: 1% deoxycholate, the commercial preparation of Aqualyx®, and the Network Lipolysis PC/DC formula.
Because there was no host; inflammatory changes would not be expected. This study was only performed to assess the immediacy of adipocyte changes, and to determine the method of action of each compound.

[2] = test system: adipocytes over nerve cells, dermal cells, muscle cells, and endothelial cells; assay: LIVE/DEAD assay, tissue preference (adipocytes versus other cell types); assay type: cell-based, human; details: for tissue specificity / tissue preference: Example 2, FIGS. 5-8 and table, 2 and 5 hours in FIGS. 6-8
[3] = test system: fat pad (human fat graft); assay: Nude mouse study, injection into engrafted human fat pad; assay type: in vivo
Method: This example reports exemplary compounds reported in Example 1. A mouse study was performed to test compounds of the embodiments. Eight test compounds were injected. In addition to normal saline and compound diluent (DMSO plus excipients) (negative controls), positive controls included 1% sodium deoxycholate (DC, MasterPharm, Richmond Hill, N.Y.), phosphatidylcholine 25 mg/ml plus deoxycholate 12 mg/ml (PC/DC, PC25/DC 12, MasterPharm, Richmond Hill, N.Y.), and Aqualyx®, a sodium deoxycholate in a lactose carrier (Marllor International, Italy).
Seventy nude mice were chosen for a study of safety and efficacy of injectable lipolytic compounds. Human fat was harvested one hour prior to the injection procedure. 0.5 cc of fat was loaded into micro syringes. Engraftment took place under general anesthesia. Four weeks later, the fat pad size was measured and compounds injected precisely using a 6 mm meso needle in the center and 0.5 cm cephalad and caudad to the midpoint. Mice were sacrificed at one day, one week, two weeks and 4 weeks. […]
Each fat pad was measured and weighed on the analytical balance at the time of sacrifice. […]
Size reduction after compound injection was measured against the measurement taken just previous to injection of compounds. […] Compound dose was calculated based on the average weight of each mouse and was based on the maximum safe dose of PC/DC. […]

[4] = recent reports following clinical trials; cited from earlier work
[5] = test system: skeletal muscle cells; assay: LIVE/DEAD calcein/ethidium bromide assay, muscle cell kill rate; assay type: cell-based, human; details: for Muscle, averaged ethidium numbers: kill rate (ethidium), same plate as adipocytes; for Muscle, relative kill rate rated against the adipocyte kill rate: percentage in brackets
Method: (§1) The time and concentration dependent effects of drug substance on both cell viability and toxicity were evaluated using a two-color fluorescence assay that measures plasma membrane integrity and intracellular enzyme activity. Live cells are determined by the strong fluorescence of calcein AM upon enzymatic conversion. […] The ratio of ethidium to calcein fluorescence is an excellent measure of the relative amount of live and dead cells.
(§2) Initial screening was performed using a variety of cell viability and cytotoxicity assays, including Presto Blue® (Invitrogen, Grand Island, N.Y.), Alamar Blue® (Invitrogen, Grand Island, N.Y.), Cyto-Tox One® (Promega, Madison, Wis.), and Cell Titer Glo® (Promega, Madison, Wis.). […] An MTT terazolium assay was performed, as well as LDH and ATP based assays. […] The LIVE/DEAD® for mammalian cells assay was used. LIVE/DEAD® for mammalian cells assay is a calcein (live read)/ethidium bromide (dead) multiplex assay.
(§3) A sample of DMSO/PBS was a negative control. A sample of Aqualyx® was a positive control. In the table, 24M is phosphatidylcholine 25 mg/ml plus deoxycholate 12 mg/and 25N is C 50/DC24; these were positive controls. The numbers in the table refer to averaged ethidium numbers. The percentages represent the relative kill rate for each cell type when rated against the adipocyte kill rate for that compound. All tissue types were tested on the same plate against adipocytes in order to standardize results.
(§4) Over seventy compounds of the embodiments were tested for adipocytolysis, then for tissue preference. A consistent assay with multiplex information was a calcein/ethidium bromide assay that assesses cell viability and cell death simultaneously. Cell viability was checked using the Countess device. All plates were inoculated with 100 microliters of the appropriate cell types. A 6 well repeat was used to verify results. Cell types used included cultured human adult derived adipocytes, dermal fibroblasts, skeletal muscle cells, and endothelial cells (Cell Applications, Inc., San Diego, Calif.). Human peripheral nerve cells (Innoprot, Spain) were also used.
(§5) Compounds were formulated using a DMSO/PBS excipient. A 10 mg/ml concentration was used. One hundred microliters of test compound was inserted into 6 wells of 5 cell types, placed in adjacent rows. The plates were incubated for 4 hours. Indicator was added to each well, and plates were read at 45 minutes using a fluorescence spectrophotometer (Molecular Devices, Sunnyvale, Calif.).

[6] = test system: nerve cells; assay type: cell-based; details: for Nerve, averaged ethidium numbers: kill rate (ethidium), same plate as adipocytes; for Nerve, relative kill rate rated against the adipocyte kill rate: percentage in brackets
Method: as §1, §2, §3, §4, §5

[7] = test system: dermal fibroblasts; assay type: cell-based; details: for Dermis, averaged ethidium numbers: kill rate (ethidium), same plate as adipocytes; for Dermis, relative kill rate rated against the adipocyte kill rate: percentage in brackets
Method: as §1, §2, §3, §4, §5

[8] = test system: adipocytes; assay: LIVE/DEAD calcein/ethidium bromide assay, adipocyte kill rate; assay type: cell-based, human; details: for adipocyte kill rate / aggressiveness: Example 2, FIGS. 5-8 and table; for Adipocyte, averaged ethidium numbers: kill rate (ethidium), all tissue types on the same plate
Method: as §1, §2, §3, §4, §5

[9] = test system: endothelial cells; assay: LIVE/DEAD calcein/ethidium bromide assay, endothelial cell kill rate; assay type: cell-based, human; details: for Endothelial, averaged ethidium numbers: kill rate (ethidium), same plate as adipocytes; for Endothelial, relative kill rate rated against the adipocyte kill rate: percentage in brackets
Method: as §1, §2, §3, §4, §5

C[C@H](CCC(=O)[O-])[C@H]1CC[C@H]2[C@@H]3CC[C@@H]4C[C@H](O)CC[C@]4(C)[C@H]3C[C@H](O)[C@]12C.[Na+] [1% deoxycholate, sodium deoxycholate]
histology finding / mechanism of action ([1]; at 4 hours): Cell wall lysis
tissue specificity / tissue preference [2]: indiscriminate
gross effect on fat pad graft ([3]; four weeks after injection): Visible and measurable fat reduction
gross effect on fat pad graft ([3]; one day after injection): Immediate necrosis
instances of facial nerve palsy [4]: two
numbness with paresthesias, patients treated [4]: up to 40%

O=C(O)c1cc2ccccc2[nH]1 [Compound 29, 1H-indole-2-carboxylic acid]
histology finding / mechanism of action ([1]; at 12 hours): primarily an apoptotic mechanism
tissue specificity / tissue preference [2]: most strongly tissue preferential; also recorded: strongly adipocyte preferential
Muscle, averaged ethidium numbers [5]: 14
Muscle, relative kill rate rated against the adipocyte kill rate [5]: 17%
Nerve, averaged ethidium numbers [6]: 15
Nerve, relative kill rate rated against the adipocyte kill rate [6]: 18%
Dermis, averaged ethidium numbers [7]: 9
Dermis, relative kill rate rated against the adipocyte kill rate [7]: 11%
adipocyte kill rate / aggressiveness [8]: less aggressive; also recorded: equivalent to that of Compounds D and E
Adipocyte, averaged ethidium numbers [8]: 83
Endothelial, averaged ethidium numbers [9]: 8.5
Endothelial, relative kill rate rated against the adipocyte kill rate [9]: 10%

c1ccc2[nH]ccc2c1 [Compound 33, 1H-indole]
histology finding / mechanism of action ([1]; at 4 hours): pyroptotic activity
ethidium results for dermis, muscle and endothelial cells compared with adipocytes ([2]; 4 time points over 24 hours): less than half toxic
tissue specificity / tissue preference [2]: moderate tissue specificity
tissue preference ([2]; Example 5, FIG. 12, 10 mg/ml, 4 hours incubation): about 50%
Muscle, averaged ethidium numbers [5]: 18
Muscle, relative kill rate rated against the adipocyte kill rate [5]: 56%
Nerve, averaged ethidium numbers [6]: 17
Nerve, relative kill rate rated against the adipocyte kill rate [6]: 53%
Dermis, averaged ethidium numbers [7]: 17
Dermis, relative kill rate rated against the adipocyte kill rate [7]: 53%
adipocyte kill rate / aggressiveness [8]: fairly low adipocyte kill rate
Adipocyte, averaged ethidium numbers [8]: 32
Endothelial, averaged ethidium numbers [9]: 18
Endothelial, relative kill rate rated against the adipocyte kill rate [9]: 56%

Brc1ccc2[nH]ccc2c1 [Compound 38, 5-bromo-1H-indole]
histology finding / mechanism of action ([1]; at 4 hours): primarily cytolysis
tissue specificity / tissue preference [2]: moderate preference
Muscle, averaged ethidium numbers [5]: 362
Muscle, relative kill rate rated against the adipocyte kill rate [5]: 65%
toxicity to nerve cells ([6]; Example 2, FIGS. 6-8): toxic to nerve cells
Nerve, averaged ethidium numbers [6]: 551
Nerve, relative kill rate rated against the adipocyte kill rate [6]: 99%
toxicity to dermis / dermal fibroblasts ([7]; Example 2, FIGS. 6-8): not nearly as toxic
Dermis, averaged ethidium numbers [7]: 148
Dermis, relative kill rate rated against the adipocyte kill rate [7]: 27%
adipocyte kill rate / aggressiveness [8]: aggressive adipocyte killer
Adipocyte, averaged ethidium numbers [8]: 558
Endothelial, averaged ethidium numbers [9]: 289
Endothelial, relative kill rate rated against the adipocyte kill rate [9]: 50%

O=C(O)Cc1c[nH]c2ccc(Br)cc12 [Compound 41, 2-(5-bromo-1H-indol-3-yl) acetic acid]
histology finding / mechanism of action ([1]; at 12 hours): Pyroptotic mechanism
tissue specificity / tissue preference [2]: most strongly tissue preferential; also recorded: high tissue preference index
Muscle, averaged ethidium numbers [5]: 40
Muscle, relative kill rate rated against the adipocyte kill rate [5]: 27%
Nerve, averaged ethidium numbers [6]: 32
Nerve, relative kill rate rated against the adipocyte kill rate [6]: 20%
Dermis, averaged ethidium numbers [7]: 27
Dermis, relative kill rate rated against the adipocyte kill rate [7]: 18%
adipocyte kill rate / aggressiveness [8]: moderate; also recorded: strong adipocytolytic capability
Adipocyte, averaged ethidium numbers [8]: 149
Endothelial, averaged ethidium numbers [9]: 44
Endothelial, relative kill rate rated against the adipocyte kill rate [9]: 30%

Reference: patent US10653670B2, “Use of indole compounds for fat reduction and skin and soft tissue tightening” (Alevere Medical Corporation, priority 2013, dated 2020)
